# Experimental data from patent US8604059B2, “Thioxanthene derivatives for the treatment of infectious diseases” (BKG Pharma APS, priority 2009, dated 2013).
# Several values for one entry are separate records, joined by “and”; a condition that tells them apart may be missing. Equal values may be shown once. Read-outs that look alike come from different tables or passages of the source.
# Legend:
# [1] = test system: Multiresistant clinical isolates of S. aureus and S. epidermidis; test: Maximal reversal of resistance and synergistic effect (Table 4b); format: cell-based; details: for MIC / MIC alone: antibiotic alone, ten strains in each group; for MIC / MIC plus compound 1 0.60 ug/ml / MIC compound 2 0.98 ug/ml / MIC plus compound 3 0.30 ug/ml / MIC plus compound 4 0.75 ug/ml / MIC alone: median; for Fold enhanced, compound 1 0.60 ug/ml: enhancement of antibiotic by compound 1 at 0.60 ug/ml; for Fold enhanced, compound 2 0.98 ug/ml: enhancement of antibiotic by compound 2 at 0.98 ug/ml; for Fold enhanced, compound 3 0.30 ug/ml: enhancement of antibiotic by compound 3 at 0.30 ug/ml; for Fold enhanced, compound 4 0.75 ug/ml: enhancement of antibiotic by compound 4 at 0.75 ug/ml; for MIC plus compound 1 0.60 ug/ml: MIC of antibiotic in presence of compound 1 at 0.60 ug/ml; for MIC compound 2 0.98 ug/ml: MIC of antibiotic in presence of compound 2 at 0.98 ug/ml; for MIC plus compound 3 0.30 ug/ml: MIC of antibiotic in presence of compound 3 at 0.30 ug/ml; for MIC plus compound 4 0.75 ug/ml: MIC of antibiotic in presence of compound 4 at 0.75 ug/ml
# Procedure: (§1) The maximal obtained reversal of resistance and synergistic effect was tested as previously described.
# Strains: Multiresistant clinical isolates of S. aureus and S. epidermidis, Ten strains in each group.
# [2] = test system: Multiresistant clinical isolates E. coli; test: Maximal reversal of resistance and synergistic effect (Table 4c); format: cell-based; details: for MIC: Escherichia coli; for MIC / MIC alone: antibiotic alone, ten strains; for MIC / MIC plus compound 1 1.0 ug/ml / MIC plus compound 2 2.0 ug/ml / MIC plus compound 3 0.6 ug/ml / MIC alone: median; for Fold enhanced, compound 1 1.0 ug/ml: enhancement of antibiotic by compound 1 at 1.0 ug/ml; for Fold enhanced, compound 2 2.0 ug/ml: enhancement of antibiotic by compound 2 at 2.0 ug/ml; for Fold enhanced, compound 3 0.6 ug/ml: enhancement of antibiotic by compound 3 at 0.6 ug/ml; for MIC plus compound 1 1.0 ug/ml: MIC of antibiotic in presence of compound 1 at 1.0 ug/ml; for MIC plus compound 2 2.0 ug/ml: MIC of antibiotic in presence of compound 2 at 2.0 ug/ml; for MIC plus compound 3 0.6 ug/ml: MIC of antibiotic in presence of compound 3 at 0.6 ug/ml
# Procedure: as §1
# Strains: Multiresistant clinical isolates E. coli, Ten strains in each group.
# [3] = test system: E. coli; test: MIC, microdilution broth, multiresistant clinical isolates (Table 1A); format: cell-based; details: Escherichia coli; ten multiresistant clinical isolates; read-out: Median MIC E. coli
# Procedure: (§2) Cell growth was tested using the Minimal Inhibitory Concentration (MIC) susceptibility tests by use of the microdilution broth method in accordance to the NCCLS Guidelines (NCCLS Guidelines, Methods for Dilution Antimicrobial Susceptibility Tests for Bacteria That Grow Aerobically; Approved Standard, Sixth Edition, Volume 23; Number 2). The minimum inhibitory concentration (MIC), is defined as the lowest concentration of drug which inhibits growth of the test organism, in the sense that no visible growth is detected (total inhibition of growth). In example 2, MIC of the compounds used on fungal microorgansims was determined from the IC90 measurements according to NCCLS Guidelines.
# (§3) A log phase culture of bacteria was diluted with fresh pre-warmed Mueller-Hinton medium and adjusted to a defined OD at 600 nm in order to give a final concentration of 1×10^4-5 bacteria/ml medium. The bacterial culture was transferred to microtiter-plates and culture was added to each well. […] Trays were incubated at 37° C. by shaking in a robot analyzer, PowerWavex, software KC^4′ Kebo. Lab, Copenhagen, for 16 h and optical densities were measured at 600 nm during the incubation time in order to record growth curves. Wells containing bacterial culture without drug were used as controls to ensure correct inoculum size and bacterial growth during the incubation. Cultures were tested in order to detect contaminations. Each experiment was repeated in triplicate.
# (§4) Ten strains in each test group.
# [4] = test system: E. faecalis; test: as above; format: cell-based; details: Enterococcus faecalis; ten multiresistant clinical isolates; read-out: Median MIC E. faecalis
# Procedure: as §2, §3, §4
# [5] = test system: E. faecium; test: as above; format: cell-based; details: Enterococcus faecium; ten multiresistant clinical isolates; read-out: Median MIC E. faecium
# Procedure: as §2, §3, §4
# [6] = test system: S. aureus; test: as above; format: cell-based; details: Staphylococcus aureus; ten multiresistant clinical isolates; read-out: Median MIC S. aureus
# Procedure: as §2, §3, §4
# [7] = test system: S. epidermidis; test: as above; format: cell-based; details: Staphylococcus epidermidis; ten multiresistant clinical isolates; read-out: Median MIC S. epidermidis
# Procedure: as §2, §3, §4
# [8] = test system: E. coli MDR clinical isolates; test: FIC index, synergy with antibiotics (Table 4a); format: cell-based; details: 8 MDR E. coli, mean, compound at ¼ of MIC
# Procedure: (§5) The effect of the compounds was tested according to the methods described in WO2005/105145. In brief, cell growth was tested using the MIC susceptibility tests by use of the microdilution broth method in accordance to the NCCLS Guidelines (NCCLS Guidelines, Methods for Dilution Antimicrobial Susceptibility Tests for Bacteria That Grow Aerobically; Approved Standard, Sixth Edition, Volume 23; Number 2).
# (§6) The Fractional Inhibitory Concentration (FIC) index were calculated for each compound as described in WO2005/105145. Synergy was defined for Fractional Inhibitory Concentration (FIC) indices less than 0.5
# E. coli: 8 in vivo-selected multidrug resistant clinical isolates of E. coli. Resistant to tetracycline, beta-lactams, fluoroquinolones, chloramphenicol and aminoglycoside
# [9] = test system: S. aureus MRSA clinical isolates; test: FIC index, synergy with antibiotics (Table 4a); format: cell-based, Staphylococcus aureus; details: with Dicloxacillin; 8 MRSA; mean; compound at ¼ of MIC
# Procedure: as §5, §6
# Staphylococcus aureus: 8 (MRSA) in vivo-selected clinical isolates. Resistant to methicillin and beta-lactam antibiotics. Susceptible to teicoplanin chloramphenicol, fosfomycin, netilmicin and vancomycin.
# [10] = test system: E. faecalis MDR/VRE clinical isolates; test: FIC index, synergy with antibiotics (Table 4a); format: cell-based, Enterococcus faecalis; details: 8 MDR/VRE E. faecalis, mean, compound at ¼ of MIC
# Procedure: as §5, §6
# Enterococcus faecalis: 8 multidrug resistant in vivo-selected clinical isolates. […] Expressing change in the cell wall precursor target as a major resistance mechanism (VanA gene expression).
# [11] = test system: Candida albicans; test: Synergy with fluconazole, broth microdilution NCCLS M27-A (Table 10); format: cell-based; details: Candida albicans
# Procedure: The isolates were subcultured for 24 h on Sabouraud glucose agar before susceptibility testing. Broth microdilution tests were performed according to NCCLS document M27-A (Ref: National Commitee for Clinical Laboratory Standards. (1997). Reference Method for Broth Dilution Antifungal Susceptibility Testing of Yeasts: Approved Standard M27-A. NCCLS, Wayne, Pa.) Microtitre plates were read spectrophotometrically at 530 nm, after mixing the wells by pipetting to resuspend yeast sediments. […] The Fractional Inhibitory Concentration (FIC) was calculated for the anti-infective agent alone and in combination with compound 3 and 4 (see table 4) as described above. Synergy was defined as a FIC index of <0.5.
# [12] = test system: Enterococcus faecalis ENT 28 (VRE); test: Mouse peritonitis model, neutropenic NMRI mice, enhancing effect with linezolid; format: in vivo
# Procedure: A multiresistant clinical isolate of Enterococcus faecalis ENT 28 (VRE) from human urine was used.
# Female NMRI mice (age, approximately 6 to 8 weeks; weight, 30±2 g) were used for the mouse […] peritonitis model (as described below).
# In order to detect any synergistic effect, infected mice were treated with sub-therapeutic doses of each test compound alone or a mixture of the two compounds.
# Bacterial suspensions were prepared from fresh overnight cultures (made from frozen stock cultures) on 5% blood agar plates as described above. The inoculum for the mouse peritonitis model was prepared immediately before use and was adjusted at 540 nm of giving a density of approximately 10^7 CFU/ml. The size of the inoculum was determined by viability counting on 5% blood agar.
# Neutropenia was introduced by pretreating the mice with cyclophosphamide (6 mg daily for three days). […] Antibiotic therapy was initiated just after inoculation. Linezolid and compound 3 was administered subcutaneously in the neck region in a volume of 0.5 ml per dose. 3 mice were in each treatment group. Inoculated untreated control mice were included in all trials. (Method reference: Erlandsdottir et al; Antimicrob Agents Chemother. 2001 April; 45(4):1078-85)
# The effects of the various treatment regimens were determined during 5 h of treatment by evaluation of bacterial counts in the peritoneal fluid. After the mice were killed, peritoneal washes were performed by injecting 2 ml of sterile saline intraperitoneally, followed by massage of the abdomen and then opening of the peritoneum to collect the fluid. Peritoneal fluids were immediately diluted 10-fold in saline, from which 20 μl was plated onto 5% blood agar plates in spots, with subsequent counting of colonies after incubation overnight at 35° C. The lowest detection levels for bacterial counts in blood and peritoneal fluid were 50 and 250 CFU/ml, respectively.
# [13] = treatment 0 and 2 hours, sampling 5 hours, sub-therapeutic doses as in Table 9, individual mice
Compound,MIC [1] [µg/mL],"Fold enhanced, compound 1 0.60 ug/ml [1]","Fold enhanced, compound 2 0.98 ug/ml [1]","Fold enhanced, compound 3 0.30 ug/ml [1]","Fold enhanced, compound 4 0.75 ug/ml [1]","Fold enhanced, compound 1 1.0 ug/ml [2]","Fold enhanced, compound 2 2.0 ug/ml [2]","Fold enhanced, compound 3 0.6 ug/ml [2]",MIC plus compound 1 0.60 ug/ml [1] [µg/mL],MIC compound 2 0.98 ug/ml [1] [µg/mL],MIC plus compound 3 0.30 ug/ml [1] [µg/mL],MIC plus compound 4 0.75 ug/ml [1] [µg/mL],MIC alone [1] [µg/mL],further results
CC1(C)S[C@@H]2[C@H](NC(=O)[C@H](N)c3ccccc3)C(=O)N2[C@H]1C(=O)O [Ampicillin],16,4 (4),4 (4),8,4 (4),8,4,16,,,,,,MIC [2]: 32 µg/mL
CC1(C)S[C@@H]2[C@H](NC(=O)Cc3ccccc3)C(=O)N2[C@H]1C(=O)O [Benzylpenicillin],64,8 (8),8 (8),16,8 (8),,,,,,,,,
"Clc1ccc2c(c1)/C(=C/CCN1CCNCC1)c1ccccc1S2 [Compound 1, N-dealkyl-transclopenthixol]",,,,,,,,,,,,,,MIC [3]: 6 µg/mL; MIC [4]: 0.6 µg/mL; MIC [5]: 0.6 µg/mL; MIC [6]: 3.6 µg/mL; MIC [7]: 2.4 µg/mL; FIC index ([8]; with Ampicillin): 0.47; FIC index ([8]; with Ciprofloxacin): 0.47; FIC index ([8]; with Gentamycin): 0.47; FIC index ([8]; with Tetracycline): 0.47; FIC index [9]: 0.28; FIC index ([10]; with Ciprofloxacin): 0.28; FIC index ([10]; with Dicloxacillin): 0.28; Maximal reversal of resistance: concentration of compound ([2]; E. coli multiresistant isolates): 1.0 µg/mL
CC[C@H]1OC(=O)[C@H](C)[C@@H](O[C@H]2C[C@@](C)(OC)[C@@H](O)[C@H](C)O2)[C@H](C)[C@@H](O[C@@H]2O[C@H](C)C[C@H](N(C)C)[C@H]2O)[C@](C)(O)C[C@@H](C)C(=O)[C@H](C)[C@@H](O)[C@]1(C)O [Erythromycin],16,4 (4),4 (4),8,4 (4),,,,,,,,,
OC(Cn1cncn1)(Cn1cncn1)c1ccc(F)cc1F [Fluconazole],,,,,,,,,,,,,,"MIC ([11]; Table 10A, fluconazole in presence of compound 3 at 0.25 μg/ml, read-out: MIC FL + comp 3 (0.25 μg/m1)): 4 µg/mL; MIC ([11]; Table 10B (compound 4), fluconazole in presence of compound at 0.50 μg/ml, read-out: MIC FL + comp 3 (0.50 μg/ml)): 8 µg/mL; MIC ([11]; read-out: MIC Fluconazole (FL)): 128 µg/mL"
CC(=O)NC[C@H]1CN(c2ccc(N3CCOCC3)c(F)c2)C(=O)O1 [Linezolid],,,,,,,,,,,,,,"Effect on the infection / bacteria in mouse peritoneum ([12]; sub-therapeutic dose alone): no effect on the infection; score at sampling ([12]; treatment 0 and 2 hours, sampling 5 hours, Linezolid 1 mg/ml 0.5 ml, Compound 3 0.1 mg/ml 0.5, combination Linezolid 2 mg/ml (0.25 ml) and compound 3 0.2 mg/ml (0.25 ml), individual mice): 2 and 3 (2×); Cfu/ml peritoneum [12, 13]: 2.08E+09 Cfu/ml and 2.20E+09 Cfu/ml and 2.40E+09 Cfu/ml; log (cfu/ml) peritoneum [12, 13]: 9.32 log (cfu/ml) and 9.34 log (cfu/ml) and 9.38 log (cfu/ml)"
CCN1CCN(C(=O)N[C@@H](C(=O)N[C@@H]2C(=O)N3[C@@H]2SC(C)(C)[C@@H]3C(=O)O)c2ccccc2)C(=O)C1=O [Piperacillin],,,,,,4 (4),4 (4),8,,,,,,MIC [2]: 16 µg/mL
CN(C)[C@@H]1C(=O)C(C(N)=O)=C(O)[C@@]2(O)C(=O)C3=C(O)c4c(O)cccc4[C@@](C)(O)[C@H]3C[C@@H]12 [Tetracyclin],,2,2,4,2,4 (4),4 (4),8,4,8,2,8,16,MIC plus compound 1 1.0 ug/ml [2]: 4 (4) μg/ml; MIC plus compound 2 2.0 ug/ml [2]: 4 (4) μg/ml; MIC plus compound 3 0.6 ug/ml [2]: 2 µg/mL; MIC alone [2]: 16 µg/mL
Dicloxacillin & Methicillin,,16,16,32,16,,,,4,4,2,4,64,
Gentamicin,,2,2,4,2,2,2,4,4,4,2,4,8,MIC plus compound 1 1.0 ug/ml [2]: 4 µg/mL; MIC plus compound 2 2.0 ug/ml [2]: 4 µg/mL; MIC plus compound 3 0.6 ug/ml [2]: 2 µg/mL; MIC alone [2]: 8 µg/mL
